Source: patent publication US11117892B2, “Pyrrolo-pyridine derivative compound, method for preparing same, and pharmaceutical composition containing same as active ingredient for prevention or treatment of protein kinase-related diseases” (DAEGU-GYEONGBUK MEDICAL INNOVATION FOUNDATION, priority 2017, dated 2021)
Where two headings read alike, the source gives them in different places.

Tests used:
Assay in all cases: scanMAX Kinase assay panel
Format in all cases: binding
Conditions in all cases: read-out: % control
CSNK1D = CSNK1D (Homo sapiens (Human), UniProt P48730)
Description: (§1) DiscoverX Co. was asked to measure the enzyme (kinase) selectivity, and the experiment was performed using scanMAX™ Kinase assay panel.
(§2) (Example Compound−Positive Control)/(Negative Control−Positive Control)×100 [Equation 1]
(§3) Herein, the positive control indicates the compound showing the % control of 0%, and the negative control indicates DMSO showing the % control of 100%.

PRKD2 = PRKD2 (Homo sapiens (Human), UniProt Q9BZL6)
Chain of PRKD2 (Q9BZL6 whole entry): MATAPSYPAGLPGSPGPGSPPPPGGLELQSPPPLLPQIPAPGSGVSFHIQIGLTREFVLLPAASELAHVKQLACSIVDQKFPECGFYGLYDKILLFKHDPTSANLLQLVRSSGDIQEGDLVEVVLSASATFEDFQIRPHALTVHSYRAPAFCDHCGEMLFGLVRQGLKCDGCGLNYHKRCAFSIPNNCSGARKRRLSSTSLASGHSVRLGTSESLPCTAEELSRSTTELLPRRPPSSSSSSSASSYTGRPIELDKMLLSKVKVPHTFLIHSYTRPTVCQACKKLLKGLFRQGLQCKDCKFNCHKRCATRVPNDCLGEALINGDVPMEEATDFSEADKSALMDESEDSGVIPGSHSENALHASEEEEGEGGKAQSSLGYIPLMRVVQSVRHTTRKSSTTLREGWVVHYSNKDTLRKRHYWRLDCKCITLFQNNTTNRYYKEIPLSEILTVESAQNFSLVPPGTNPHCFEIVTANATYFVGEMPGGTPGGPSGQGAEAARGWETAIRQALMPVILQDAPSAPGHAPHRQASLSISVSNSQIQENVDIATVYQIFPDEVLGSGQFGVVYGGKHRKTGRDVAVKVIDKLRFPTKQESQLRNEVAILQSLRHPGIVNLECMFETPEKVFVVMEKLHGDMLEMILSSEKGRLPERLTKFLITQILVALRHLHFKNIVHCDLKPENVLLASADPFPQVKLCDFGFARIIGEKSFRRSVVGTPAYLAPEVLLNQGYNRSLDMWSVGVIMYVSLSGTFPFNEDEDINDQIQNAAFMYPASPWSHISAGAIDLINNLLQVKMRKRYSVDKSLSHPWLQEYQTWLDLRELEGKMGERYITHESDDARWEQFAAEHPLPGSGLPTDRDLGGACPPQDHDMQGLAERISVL
Description: as §1, §2, §3

CAMK2G = CAMK2G (Homo sapiens (Human), UniProt Q13555)
Description: as §1, §2, §3

FLT3(D835H) = FLT3(D835H) (Homo sapiens (Human), UniProt P36888, D835H)
Description: as §1, §2, §3

PIK3CA(I800L) = PIK3CA(I800L) (Homo sapiens (Human), UniProt P42336, I800L)
Chain of PIK3CA(I800L) (P42336 whole entry I800L): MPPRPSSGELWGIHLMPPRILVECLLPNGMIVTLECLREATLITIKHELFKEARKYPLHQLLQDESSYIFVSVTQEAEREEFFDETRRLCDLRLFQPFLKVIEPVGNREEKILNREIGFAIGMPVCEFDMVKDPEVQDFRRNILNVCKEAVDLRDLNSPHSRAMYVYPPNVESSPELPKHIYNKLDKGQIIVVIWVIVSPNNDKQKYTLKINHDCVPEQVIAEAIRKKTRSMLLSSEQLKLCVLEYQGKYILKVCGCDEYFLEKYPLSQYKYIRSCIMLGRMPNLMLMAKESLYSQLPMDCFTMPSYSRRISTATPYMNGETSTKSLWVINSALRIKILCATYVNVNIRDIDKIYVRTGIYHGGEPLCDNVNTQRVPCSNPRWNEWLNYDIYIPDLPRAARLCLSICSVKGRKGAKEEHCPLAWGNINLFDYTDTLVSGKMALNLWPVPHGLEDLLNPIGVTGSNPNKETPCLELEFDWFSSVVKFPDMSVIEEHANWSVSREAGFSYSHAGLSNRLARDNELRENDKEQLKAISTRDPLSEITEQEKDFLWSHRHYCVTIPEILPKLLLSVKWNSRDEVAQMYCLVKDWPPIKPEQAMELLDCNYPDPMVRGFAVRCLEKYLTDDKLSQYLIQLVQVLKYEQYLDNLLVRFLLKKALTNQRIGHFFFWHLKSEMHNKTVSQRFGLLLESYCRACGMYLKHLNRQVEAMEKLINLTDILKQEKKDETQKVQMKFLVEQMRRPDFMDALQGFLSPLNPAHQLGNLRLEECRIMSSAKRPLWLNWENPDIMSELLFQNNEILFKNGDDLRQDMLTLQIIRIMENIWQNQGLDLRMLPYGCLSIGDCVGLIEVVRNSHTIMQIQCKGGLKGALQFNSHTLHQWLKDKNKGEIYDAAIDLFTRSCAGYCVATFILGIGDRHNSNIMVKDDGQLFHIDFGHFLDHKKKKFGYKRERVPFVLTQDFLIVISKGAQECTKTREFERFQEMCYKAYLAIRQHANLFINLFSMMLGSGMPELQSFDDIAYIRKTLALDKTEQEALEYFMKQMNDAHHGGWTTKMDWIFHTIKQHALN
Description: as §1, §2, §3

TEC = TEC (Homo sapiens (Human), UniProt P42680)
Chain of TEC (P42680 whole entry): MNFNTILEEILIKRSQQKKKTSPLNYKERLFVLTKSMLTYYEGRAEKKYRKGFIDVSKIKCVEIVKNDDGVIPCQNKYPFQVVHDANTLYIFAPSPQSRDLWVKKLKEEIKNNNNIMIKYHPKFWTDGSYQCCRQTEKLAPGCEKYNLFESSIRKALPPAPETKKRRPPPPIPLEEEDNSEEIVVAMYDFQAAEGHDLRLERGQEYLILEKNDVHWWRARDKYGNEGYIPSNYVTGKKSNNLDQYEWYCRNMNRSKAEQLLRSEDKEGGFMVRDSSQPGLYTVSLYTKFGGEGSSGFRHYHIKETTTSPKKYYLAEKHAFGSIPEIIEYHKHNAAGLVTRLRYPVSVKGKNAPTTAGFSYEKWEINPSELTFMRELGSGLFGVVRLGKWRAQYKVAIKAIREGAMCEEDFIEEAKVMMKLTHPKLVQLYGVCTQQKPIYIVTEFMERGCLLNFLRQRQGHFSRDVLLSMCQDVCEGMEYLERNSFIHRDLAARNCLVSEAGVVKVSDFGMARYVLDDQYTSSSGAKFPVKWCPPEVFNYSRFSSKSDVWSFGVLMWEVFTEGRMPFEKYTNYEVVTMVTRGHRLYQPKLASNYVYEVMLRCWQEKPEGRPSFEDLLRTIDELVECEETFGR
Description: as §1, §2, §3

PHKG2 = PHKG2 (Homo sapiens (Human), UniProt P15735)
Description: as §1, §2, §3

p38-gamma = p38-gamma (Homo sapiens (Human), UniProt P53778)
Description: as §1, §2, §3

CAMK4 = CAMK4 (Homo sapiens (Human), UniProt Q16566)
Description: as §1, §2, §3

ASK2 = ASK2 (Homo sapiens (Human), UniProt O95382)
Description: as §1, §2, §3

ERBB2 = ERBB2 (Homo sapiens (Human), UniProt P04626)
Description: as §1, §2, §3

MYLK4 = MYLK4 (Homo sapiens (Human), UniProt Q86YV6)
Description: as §1, §2, §3

FAK = FAK (Homo sapiens (Human), UniProt Q05397)
Chain of FAK (Q05397 whole entry): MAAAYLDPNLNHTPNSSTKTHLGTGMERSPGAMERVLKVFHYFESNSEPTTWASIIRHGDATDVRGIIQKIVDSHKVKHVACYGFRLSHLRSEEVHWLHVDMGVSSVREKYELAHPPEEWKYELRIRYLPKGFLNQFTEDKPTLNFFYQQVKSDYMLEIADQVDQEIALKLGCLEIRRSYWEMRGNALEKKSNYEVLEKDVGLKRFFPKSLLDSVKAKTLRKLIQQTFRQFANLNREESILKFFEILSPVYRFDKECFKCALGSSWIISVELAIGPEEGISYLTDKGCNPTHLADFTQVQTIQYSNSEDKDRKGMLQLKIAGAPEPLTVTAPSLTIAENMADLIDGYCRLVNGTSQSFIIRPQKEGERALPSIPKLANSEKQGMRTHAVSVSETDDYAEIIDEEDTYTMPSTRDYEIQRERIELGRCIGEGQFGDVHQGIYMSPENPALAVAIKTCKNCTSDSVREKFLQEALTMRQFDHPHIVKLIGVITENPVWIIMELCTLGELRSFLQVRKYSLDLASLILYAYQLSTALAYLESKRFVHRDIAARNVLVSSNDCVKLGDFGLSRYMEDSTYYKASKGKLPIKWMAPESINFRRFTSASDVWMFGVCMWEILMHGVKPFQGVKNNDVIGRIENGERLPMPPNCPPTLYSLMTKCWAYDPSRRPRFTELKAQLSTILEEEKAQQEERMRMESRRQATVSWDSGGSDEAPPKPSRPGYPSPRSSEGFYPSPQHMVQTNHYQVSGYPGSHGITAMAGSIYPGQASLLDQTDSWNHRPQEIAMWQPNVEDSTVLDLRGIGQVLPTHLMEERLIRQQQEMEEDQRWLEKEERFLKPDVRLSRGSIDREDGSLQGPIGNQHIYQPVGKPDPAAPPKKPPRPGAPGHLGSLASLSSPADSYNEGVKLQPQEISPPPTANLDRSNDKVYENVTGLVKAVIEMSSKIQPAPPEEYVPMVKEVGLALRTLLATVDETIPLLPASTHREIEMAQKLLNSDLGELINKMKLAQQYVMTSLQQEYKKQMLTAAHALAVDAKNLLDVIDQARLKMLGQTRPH
Description: as §1, §2, §3

TXK = TXK (Homo sapiens (Human), UniProt P42681)
Description: as §1, §2, §3

TLK1 = TLK1 (Homo sapiens (Human), UniProt Q9UKI8)
Description: as §1, §2, §3

DDR2 = DDR2 (Homo sapiens (Human), UniProt Q16832)
Description: as §1, §2, §3

MST2 = MST2 (Homo sapiens (Human), UniProt Q13188)
Description: as §1, §2, §3

ACVR2A = ACVR2A (Homo sapiens (Human), UniProt P27037)
Chain of ACVR2A (P27037 20-513): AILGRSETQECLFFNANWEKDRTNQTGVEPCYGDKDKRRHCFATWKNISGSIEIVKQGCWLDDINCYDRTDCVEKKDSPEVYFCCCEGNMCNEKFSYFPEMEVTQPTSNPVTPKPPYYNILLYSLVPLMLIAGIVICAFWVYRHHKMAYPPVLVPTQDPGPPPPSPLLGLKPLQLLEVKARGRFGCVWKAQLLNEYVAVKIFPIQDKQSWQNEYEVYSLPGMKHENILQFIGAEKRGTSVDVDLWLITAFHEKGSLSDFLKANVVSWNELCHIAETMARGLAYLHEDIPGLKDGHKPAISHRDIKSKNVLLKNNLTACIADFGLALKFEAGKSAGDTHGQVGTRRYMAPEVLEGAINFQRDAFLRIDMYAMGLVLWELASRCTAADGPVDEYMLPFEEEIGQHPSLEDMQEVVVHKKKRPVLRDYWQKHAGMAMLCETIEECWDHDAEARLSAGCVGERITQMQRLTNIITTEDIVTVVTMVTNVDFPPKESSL
Description: as §1, §2, §3

ABL1-phosphorylated = ABL1-phosphorylated (Homo sapiens (Human), UniProt P00519)
Description: as §1, §2, §3

JNK3 = JNK3 (Homo sapiens (Human), UniProt P53779)
Description: as §1, §2, §3

PIK3CA = PIK3CA (Homo sapiens (Human), UniProt P42336)
Chain of PIK3CA (P42336 whole entry): as the sequence (P42336 whole entry I800L) above, with L800I counted along it
Description: as §1, §2, §3

STK39 = STK39 (Homo sapiens (Human), UniProt Q9UEW8)
Description: as §1, §2, §3

AURKC = AURKC (Homo sapiens (Human), UniProt Q9UQB9)
Description: as §1, §2, §3

PIP5K1C = PIP5K1C (Homo sapiens (Human), UniProt O60331)
Description: as §1, §2, §3

FGFR1 = FGFR1 (Homo sapiens (Human), UniProt P11362)
Description: as §1, §2, §3

S6K1 = S6K1 (Homo sapiens (Human), UniProt P23443)
Description: as §1, §2, §3

NEK5 = NEK5 (Homo sapiens (Human), UniProt Q6P3R8)
Description: as §1, §2, §3

CAMK1 = CAMK1 (Homo sapiens (Human), UniProt Q14012)
Chain of CAMK1 (Q14012 whole entry): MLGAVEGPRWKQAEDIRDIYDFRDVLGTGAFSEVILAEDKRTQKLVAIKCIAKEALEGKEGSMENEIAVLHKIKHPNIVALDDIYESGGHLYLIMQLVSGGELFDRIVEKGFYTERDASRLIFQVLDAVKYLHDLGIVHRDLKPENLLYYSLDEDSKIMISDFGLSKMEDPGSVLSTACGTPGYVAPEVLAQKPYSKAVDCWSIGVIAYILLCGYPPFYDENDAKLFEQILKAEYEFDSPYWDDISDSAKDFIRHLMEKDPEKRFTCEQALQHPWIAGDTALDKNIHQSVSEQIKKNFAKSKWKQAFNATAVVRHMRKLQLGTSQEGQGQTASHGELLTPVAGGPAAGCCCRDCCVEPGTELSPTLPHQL
Description: as §1, §2, §3

CDK7 = CDK7 (Homo sapiens (Human), UniProt P50613)
Description: as §1, §2, §3

MET(M1250T) = MET(M1250T) (Homo sapiens (Human), UniProt P08581, M1250T)
Description: as §1, §2, §3

MARK3 = MARK3 (Homo sapiens (Human), UniProt P27448)
Description: as §1, §2, §3

[1] = target: RPS6KA5(Kin.Dom.1-N-terminal) (Homo sapiens (Human), UniProt O75582)
Description: as §1, §2, §3

TIE2 = TIE2 (Homo sapiens (Human), UniProt Q02763)
Description: as §1, §2, §3

AURKB = AURKB (Homo sapiens (Human), UniProt Q96GD4)
Description: as §1, §2, §3

PCTK1 = PCTK1 (Homo sapiens (Human), UniProt Q00536)
Chain of PCTK1 (Q00536 whole entry): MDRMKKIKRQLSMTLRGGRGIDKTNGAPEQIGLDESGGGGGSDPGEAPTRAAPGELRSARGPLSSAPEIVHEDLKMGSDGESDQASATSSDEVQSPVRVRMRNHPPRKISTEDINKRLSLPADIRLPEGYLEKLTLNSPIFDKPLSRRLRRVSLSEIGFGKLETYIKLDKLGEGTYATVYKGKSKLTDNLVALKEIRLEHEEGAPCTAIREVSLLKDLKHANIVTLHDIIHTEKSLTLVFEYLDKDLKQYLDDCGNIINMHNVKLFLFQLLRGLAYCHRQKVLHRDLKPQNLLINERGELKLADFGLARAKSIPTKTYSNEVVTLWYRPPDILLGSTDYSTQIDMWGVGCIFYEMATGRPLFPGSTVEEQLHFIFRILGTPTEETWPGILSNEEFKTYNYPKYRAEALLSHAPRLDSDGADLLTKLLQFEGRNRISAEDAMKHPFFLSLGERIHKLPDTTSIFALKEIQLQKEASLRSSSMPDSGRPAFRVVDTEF
Description: as §1, §2, §3

[2] = target: ABL1(M351T)-phosphorylated (Homo sapiens (Human), UniProt P00519, M351T)
Description: as §1, §2, §3

STK35 = STK35 (Homo sapiens (Human), UniProt Q8TDR2)
Description: as §1, §2, §3

ACVRL1 = ACVRL1 (Homo sapiens (Human), UniProt P37023)
Description: as §1, §2, §3

MAST1 = MAST1 (Homo sapiens (Human), UniProt Q9Y2H9)
Description: as §1, §2, §3

Structure (SMILES)	remaining binding at 1 µM (PRKD2) [%]	remaining binding at 1 µM (CAMK2G) [%]	remaining binding at 1 µM (FLT3(D835H)) [%]	remaining binding at 1 µM (PIK3CA(I800L)) [%]	remaining binding at 1 µM (TEC) [%]	remaining binding at 1 µM (PHKG2) [%]	remaining binding at 1 µM (p38-gamma) [%]	remaining binding at 1 µM (CAMK4) [%]	remaining binding at 1 µM (ASK2) [%]	remaining binding at 1 µM (ERBB2) [%]	remaining binding at 1 µM (MYLK4) [%]	remaining binding at 1 µM (FAK) [%]	remaining binding at 1 µM (TXK) [%]	remaining binding at 1 µM (TLK1) [%]	remaining binding at 1 µM (DDR2) [%]	remaining binding at 1 µM (MST2) [%]	remaining binding at 1 µM (ACVR2A) [%]	remaining binding at 1 µM (ABL1-phosphorylated) [%]	remaining binding at 1 µM (JNK3) [%]	remaining binding at 1 µM (PIK3CA) [%]	further results
CCNc1cc(Nc2ccc(C(=O)N3CCC(N4CCOCC4)CC3)cc2OC)nc2[nH]cc(C(F)(F)F)c12 [Example 57, (4-((4-(ethylamino)-3-(trifluoromethyl)-1H-pyrrolo[2,3-b]pyridin-6-yl)amino)-3-methoxyphenyl) (4-morpholinopiperidin-1-yl)methanone]	83	72	100	69	92	23	77	88	92	73	83	77	85	73	91	100	99	61	52	87	percent of control binding at 1 µM (CSNK1D): 30%; remaining binding at 1 µM (STK39): 43%; remaining binding at 1 µM (AURKC): 95%; remaining binding at 1 µM (PIP5K1C): 69%; remaining binding at 1 µM (FGFR1): 87%; remaining binding at 1 µM (S6K1): 100%; remaining binding at 1 µM (NEK5): 91%; remaining binding at 1 µM (CAMK1): 78%; remaining binding at 1 µM (CDK7): 53%; remaining binding at 1 µM (MET(M1250T)): 100%; remaining binding at 1 µM (MARK3): 92%; remaining binding at 1 µM [1]: 100%; remaining binding at 1 µM (TIE2): 89%; remaining binding at 1 µM (AURKB): 81%; remaining binding at 1 µM (PCTK1): 83%; remaining binding at 1 µM [2]: 98%; remaining binding at 1 µM (STK35): 98%; remaining binding at 1 µM (ACVRL1): 89%; remaining binding at 1 µM (MAST1): 66%
CCNc1cc(Nc2ccc(C(=O)N3CCC(N4CCOCC4)CC3)cc2OC)nc2[nH]cc(C#N)c12 [Example 18, 4-(ethylamino)-6-((2-methoxy-4-(4-morpholinopiperidine-1-carbonyl)phenyl)amino)-1H-pyrrolo[2,3-b]pyridine-3-carbonitrile]	2	77	89	100	100	12	77	76	82	99	88	78	99	100	98	95	100	87	0	100	percent of control binding at 1 µM (CSNK1D; CSNK1D, 1 uM): 5.3%; remaining binding at 1 µM (STK39): 26%; remaining binding at 1 µM (AURKC): 92%; remaining binding at 1 µM (PIP5K1C): 67%; remaining binding at 1 µM (FGFR1): 87%; remaining binding at 1 µM (S6K1): 70%; remaining binding at 1 µM (NEK5): 92%; remaining binding at 1 µM (CAMK1): 62%; remaining binding at 1 µM (CDK7): 55%; remaining binding at 1 µM (MET(M1250T)): 100%; remaining binding at 1 µM (MARK3): 100%; remaining binding at 1 µM [1]: 100%; remaining binding at 1 µM (TIE2): 82%; remaining binding at 1 µM (AURKB): 73%; remaining binding at 1 µM (PCTK1): 98%; remaining binding at 1 µM [2]: 100%; remaining binding at 1 µM (STK35): 85%; remaining binding at 1 µM (ACVRL1): 80%; remaining binding at 1 µM (MAST1): 93%
